US9714231B2, “Pyrrolidine GPR40 modulators” (BRISTOL-MYERS SQUIBB COMPANY, priority 2012, dated 2017)
pEC50: −log10 of the molar value. Where a name gives a salt, the structure may show the parent alone.

Target: human GPR40 (Homo sapiens, UniProt O14842)
Experiment: FDSS-based intracellular calcium assay (Human GRP40 in vitro assay)
Assay type: cell-based
Set-up: 3xFLAG; expressed in transfected cells
Conditions: cells expressing GPR40, intracellular Ca2+ response, FDSS reader; read-out: hGPR40 EC50
Method in brief: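 GPR40-expressing cells, plated overnight in serum-free phenol red-free DMEM, loaded with Fluo-3 in HBSS with 1.7 mM probenecid for 30 min at 37° C. Compounds in DMSO, diluted in assay buffer, added as 3× solutions; intracellular Ca^2+ response read on FDSS.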

human GPR40, sequence (O14842 whole entry): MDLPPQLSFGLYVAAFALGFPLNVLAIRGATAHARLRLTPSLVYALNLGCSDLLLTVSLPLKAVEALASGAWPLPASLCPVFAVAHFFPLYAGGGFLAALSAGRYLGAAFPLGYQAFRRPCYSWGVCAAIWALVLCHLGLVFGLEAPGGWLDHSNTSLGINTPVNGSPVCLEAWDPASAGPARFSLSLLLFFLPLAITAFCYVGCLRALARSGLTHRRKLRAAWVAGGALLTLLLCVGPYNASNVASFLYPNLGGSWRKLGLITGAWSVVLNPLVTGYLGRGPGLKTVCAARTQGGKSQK

Compound	pEC50
CCOc1ccc(F)c(N2CCC(Oc3ccc(N4C[C@H](OC)[C@@H](C)[C@@H]4CC(=O)O)cc3F)C(C)C2)c1 (stereo partly drawn) [Example 100, 2-((2S,3S,4R)-1-(4-(((3,4-trans)-1-(5-Ethoxy-2-fluorophenyl)-3-methylpiperidin-4-yl)oxy)-3-fluorophenyl)-4-methoxy-3-methylpyrrolidin-2-yl)acetic acid]	6.96
CCOc1ccc(F)c(N2CCC(Oc3ccc(N4C[C@H](OC)[C@@H](C)[C@@H]4CC(=O)O)cc3F)CC2)c1 [Example 101, 2-((2S,3S,4R)-1-(4-((1-(5-Ethoxy-2-fluorophenyl)piperidin-4-yl)oxy)-3-fluorophenyl)-4-methoxy-3-methylpyrrolidin-2-yl)acetic acid]	6.74
CCCCCO[C@@H]1C[C@H](CC(=O)O)N(c2ccc(OC3CCN(c4cc(OCC)ccc4F)CC3)cc2)C1 [Example 103, 2-((2R,4R)-1-(4-((1-(5-Ethoxy-2-fluorophenyl)piperidin-4-yl)oxy)phenyl)-4-(pentyloxy)pyrrolidin-2-yl)acetic acid, TFA]	6.92
CCOc1ccc(F)c(N2CCC(Oc3ccc(N4CC[C@@H](C)[C@@H]4CC(=O)O)cc3)CC2)c1 [Example 104, 2-((2S,3R)-1-(4-((1-(5-Ethoxy-2-fluorophenyl)piperidin-4-yl)oxy)phenyl)-3-methylpyrrolidin-2-yl)acetic acid, TFA]	6.60
COc1cc(N2CCC(Oc3ccc(N4CC[C@@H](C)[C@@H]4CC(=O)O)cn3)C(C)C2)c(Cl)cn1 (stereo partly drawn) [Example 105, 2-((2S,3R)-1-(6-(((3,4-trans)-1-(5-Chloro-2-methoxypyridin-4-yl)-3-methylpiperidin-4-yl)oxy)pyridin-3-yl)-3-methylpyrrolidin-2-yl)acetic acid]	7.22
COc1cc(N2CCC(Oc3ccc(N4C[C@H](C)[C@@H](C)[C@@H]4CC(=O)O)cn3)C(C)C2)c(Cl)cn1 (stereo partly drawn) [Example 106, 2-((2S,3R,4R)-1-(6-(((3,4-trans)-1-(5-Chloro-2-methoxypyridin-4-yl)-3-methylpiperidin-4-yl)oxy)pyridin-3-yl)-3,4-dimethylpyrrolidin-2-yl)acetic acid]	6.77
CCOc1ccc(F)c(N2CCC(Oc3ccc(N4C[C@H](OC)C[C@@H]4CC(=O)O)cc3)CC2)c1 [Example 107, 2-((2R,4R)-1-(4-((1-(5-Ethoxy-2-fluorophenyl)piperidin-4-yl)oxy)phenyl)-4-methoxypyrrolidin-2-yl)acetic acid, TFA]	6.80
COc1cc(N2CCC(Oc3ccc(N4CC(C)(C)C[C@@H]4CC(=O)O)cn3)C(C)C2)c(Cl)cn1 (stereo partly drawn) [Example 109, 2-((R)-1-(6-(((3,4-trans)-1-(5-Chloro-2-methoxypyridin-4-yl)-3-methylpiperidin-4-yl)oxy)pyridin-3-yl)-4,4-dimethylpyrrolidin-2-yl)acetic acid, TFA]	6.64
COc1cc(N2CCC(Oc3ccc(N4C[C@H](C)C[C@@H]4CC(=O)O)cn3)C(C)C2)c(Cl)cn1 (stereo partly drawn) [Example 110, 2-((2R,4R)-1-(6-(((3,4-trans)-1-(5-Chloro-2-methoxypyridin-4-yl)-3-methylpiperidin-4-yl)oxy)pyridin-3-yl)-4-methylpyrrolidin-2-yl)acetic acid]	6.66
COc1cc(N2CCC(Oc3ccc(N4C[C@H](OC)[C@@H](C)[C@@H]4CC(=O)O)c(F)c3)C(C)C2)c(Cl)cn1 (stereo partly drawn) [Example 111, 2-((2S,3S,4R)-1-(4-(((3,4-trans)-1-(5-Chloro-2-methoxypyridin-4-yl)-3-methylpiperidin-4-yl)oxy)-2-fluorophenyl)-4-methoxy-3-methylpyrrolidin-2-yl)acetic acid]	6.96
COc1cc(N2CCC(Oc3ccc(N4C[C@H](OC)[C@@H](C)[C@@H]4CC(=O)O)c(F)c3)CC2)c(Cl)cn1 [Example 112, 2-((2S,3S,4R)-1-(4-((1-(5-Chloro-2-methoxypyridin-4-yl)piperidin-4-yl)oxy)-2-fluorophenyl)-4-methoxy-3-methylpyrrolidin-2-yl)acetic acid]	6.89
CCOc1ccc(F)c(N2CCC(Oc3ccc(N4C[C@H](OC)[C@@H](C)[C@@H]4CC(=O)O)c(F)c3)C(C)C2)c1 (stereo partly drawn) [Example 113, 2-((2S,3S,4R)-1-(4-(((3,4-trans)-1-(5-Ethoxy-2-fluorophenyl)-3-methylpiperidin-4-yl)oxy)-2-fluorophenyl)-4-methoxy-3-methylpyrrolidin-2-yl)acetic acid]	6.54
CCOc1ccc(F)c(N2CCC(Oc3ccc(N4C[C@H](OC)[C@@H](C)[C@@H]4CC(=O)O)c(F)c3)CC2)c1 [Example 114, 2-((2S,3S,4R)-1-(4-((1-(5-Ethoxy-2-fluorophenyl)piperidin-4-yl)oxy)-2-fluorophenyl)-4-methoxy-3-methylpyrrolidin-2-yl)acetic acid]	6.49
CCOc1ccc(F)c(N2CCC(Oc3ccc(N4C[C@H](c5cccc(C(F)(F)F)c5)C[C@@H]4CC(=O)O)cc3)CC2)c1 [Example 122, 2-((2R,4S)-1-(4-((1-(5-Ethoxy-2-fluorophenyl)piperidin-4-yl)oxy)phenyl)-4-(3-(trifluoromethyl)phenyl)pyrrolidin-2-yl)acetic acid, TFA]	6.62
CCOc1ccc(F)c(N2CCC(Oc3ccc(N4C[C@H](c5cnn(C)c5)C[C@@H]4CC(=O)O)cc3)CC2)c1 [Example 126, 2-((2R,4S)-1-(4-((1-(5-Ethoxy-2-fluorophenyl)piperidin-4-yl)oxy)phenyl)-4-(1-methyl-1H-pyrazol-4-yl)pyrrolidin-2-yl)acetic acid, TFA]	6.09
CCOc1ccc(F)c(N2CCC(Oc3ccc(N4C[C@H](Oc5ccc(C#N)cc5)CC4CC(=O)O)cc3)CC2)c1 (stereo partly drawn) [Example 128, 2-((4R)-4-(4-Cyanophenoxy)-1-(4-((1-(5-ethoxy-2-fluorophenyl)piperidin-4-yl)oxy)phenyl)pyrrolidin-2-yl)acetic acid, HCl]	5.89
CCOc1ccc(F)c(N2CCC(Oc3ccc(N4C[C@H](C#N)C[C@@H]4CC(=O)O)cc3)CC2)c1 [Example 130, 2-((2R,4R)-4-Cyano-1-(4-((1-(5-ethoxy-2-fluorophenyl)piperidin-4-yl)oxy)phenyl)pyrrolidin-2-yl)acetic acid, TFA]	5.68
COc1cc(N2CCC(Oc3ccc(N4C[C@@H](OC)[C@H](C)[C@H]4CC(=O)O)cc3)C(C)C2)c(Cl)cn1 (stereo partly drawn) [Example 131, 2-((2R,3R,4S)-1-(4-(((3,4-trans)-1-(5-Chloro-2-methoxypyridin-4-yl)-3-methylpiperidin-4-yl)oxy)phenyl)-4-methoxy-3-methylpyrrolidin-2-yl)acetic acid]	5.33
COc1cc(N2CCC(Oc3ccc(N4C[C@H](C(F)(F)F)C[C@@H]4CC(=O)O)cc3F)C(C)C2)c(Cl)cn1 (stereo partly drawn) [Example 134, 2-((2R,4R)-1-(4-(((3,4-trans)-1-(5-Chloro-2-methoxypyridin-4-yl)-3-methylpiperidin-4-yl)oxy)-3-fluorophenyl)-4-(trifluoromethyl)pyrrolidin-2-yl)acetic acid]	6.24
COc1cc(N2CCC(Oc3ccc(N4C[C@H](C(F)(F)F)C[C@@H]4CC(=O)O)c(Cl)c3)C(C)C2)c(Cl)cn1 (stereo partly drawn) [Example 135, 2-((2R,4R)-1-(2-Chloro-4-(((3,4-trans)-1-(5-chloro-2-methoxypyridin-4-yl)-3-methylpiperidin-4-yl)oxy)phenyl)-4-(trifluoromethyl)pyrrolidin-2-yl)acetic acid, HCO2H]	6.40
COc1cc(N2CCC(Oc3ccc(N4C[C@H](C(F)(F)F)C[C@@H]4CC(=O)O)cc3Cl)C(C)C2)c(Cl)cn1 (stereo partly drawn) [Example 136, 2-((2R,4R)-1-(3-Chloro-4-(((3,4-trans)-1-(5-chloro-2-methoxypyridin-4-yl)-3-methylpiperidin-4-yl)oxy)phenyl)-4-(trifluoromethyl)pyrrolidin-2-yl)acetic acid]	6.30
COc1cc(N2CCC(Oc3ccc(N4C[C@H](OC)C[C@@H]4CC(=O)O)cc3Cl)C(C)C2)c(Cl)cn1 (stereo partly drawn) [Example 137, 2-((2R,4R)-1-(3-Chloro-4-(((3,4-trans)-1-(5-chloro-2-methoxypyridin-4-yl)-3-methylpiperidin-4-yl)oxy)phenyl)-4-methoxypyrrolidin-2-yl)acetic acid, sodium salt]	6.64
CCOc1ccc(F)c(N2CCC(Oc3ccc(N4C[C@H](C(F)(F)F)C[C@@H]4CC(=O)O)c(F)c3)CC2)c1 [Example 143]	6.44
COc1cc(N2CCC(Oc3ccc(N4C[C@H](F)[C@@H](C)[C@@H]4CC(=O)O)cc3)C(C)C2)c(Cl)cn1 (stereo partly shown) [Example 145]	7.59
COc1cc(N2CCC(Oc3ccc(N4C[C@H](F)[C@@H](C)[C@@H]4CC(=O)O)cn3)C(C)C2)c(Cl)cn1 (stereo partly shown) [Example 146]	7.05
COc1cc(N2CCC(Oc3ccc(N4C[C@H](OC)C[C@@H]4CC(=O)O)cn3)C(C)C2)c(C2CCCC2)cn1 (stereo partly drawn) [Example 149, 2-((2R,4R)-1-(6-(((3,4-trans)-1-(5-Cyclopentyl-2-methoxypyridin-4-yl)-3-methylpiperidin-4-yl)oxy)pyridin-3-yl)-4-methoxypyrrolidin-2-yl)acetic acid]	6.80
COc1cc(N2CCC(Oc3ccc(N4C[C@H](OC)[C@@H](C)[C@@H]4CC(=O)O)cn3)CC2)c(C2=CCCC2(C)C)cn1 [Example 152, 2-((2S,3S,4R)-1-(6-((1-(5-(5,5-Dimethylcyclopent-1-en-1-yl)-2-methoxypyridin-4-yl)piperidin-4-yl)oxy)pyridin-3-yl)-4-methoxy-3-methylpyrrolidin-2-yl)acetic acid, HCl]	7.17
COc1cc(N2CC[C@@H](Oc3ccc(N4C[C@H](OC)[C@@H](C)[C@@H]4CC(=O)O)cn3)[C@H](C)C2)c(C2=CCCC2(C)C)cn1 [Example 153, 2-((2S,3S,4R)-1-(6-(((3R,4R)-1-(5-(5,5-Dimethylcyclopent-1-en-1-yl)-2-methoxypyridin-4-yl)-3-methylpiperidin-4-yl)oxy)pyridin-3-yl)-4-methoxy-3-methylpyrrolidin-2-yl)acetic acid, HCl]	6.70
